# Source: the supplement of paper PMC10702517
# ± gives the standard deviation.
# Columns and labels:
# [1] = chemical recovery by SPE of plasma after PDMS sampling; higher = better extraction; conditions: pooled human plasma, extraction method: HLB SPE of plasma after PES
# [2] = chemical recovery into PDMS from spiked human plasma; higher = better extraction; conditions: pooled human plasma, extraction method: PES with PDMS
# [3] = chemical recovery from spiked human plasma; higher = better extraction; conditions: pooled human plasma
# [4] = extraction method: PES+SPE (3 d PDMS equilibration then HLB SPE)
# [5] = extraction method: SPE only (HLB 96-well)
# [6] = extraction method: SPE only (HLB 96-well), PES comparison experiment
# [7] = extraction method: solvent precipitation (ACN + hexane)
# 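Throughout, for chemical recovery by SPE of plasma after PDMS sampling: over 400 spiked chemicals quantified by LC-HRMS or GC-HRMS via internal standard calibration, recovery relative to spike mix added to unspiked plasma extract to correct matrix effects.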
Compound,chemical recovery by SPE of plasma ([1]; equilibration time (d): 1),chemical recovery by SPE of plasma ([1]; equilibration time (d): 3),chemical recovery by SPE of plasma ([1]; equilibration time (d): 6),chemical recovery into PDMS ([2]; equilibration time (d): 1),chemical recovery into PDMS ([2]; equilibration time (d): 3),chemical recovery into PDMS ([2]; equilibration time (d): 6),"chemical recovery [3, 4]","chemical recovery [3, 5]","chemical recovery [3, 6]","chemical recovery [3, 7]"
"Nc1ccc2c(n1)[nH]c1ccccc12 [2-Amino-9H-pyrido[2,3-b]indole (AalphaC)]",19.66 ± 0.18%,14.4 ± 1.5%,9.97 ± 0.52%,3 ± 0.11%,3.49 ± 1.2%,5.65 ± 2.5%,17 ± 2.6%,28.5 ± 2.1%,45.3 ± 7.1%,70.8 ± 5.4%
Clc1ccc2ccccc2c1 [2-Chloronaphthalene],3.42 ± 3%,,,10.2 ± 1.7%,,,,0.106 ± 0.18%,0.564 ± 0.39%,
O=c1ccc2ccccc2[nH]1 [2-Hydroxyquinoline],36.8 ± 5.3%,30.9 ± 3.2%,24 ± 2.1%,10.9 ± 0.65%,15.6 ± 2%,17.1 ± 2.4%,57.1 ± 5.5%,43 ± 3.2%,52.9 ± 8.4%,78.2 ± 3.6%
CCCCCCCCn1sccc1=O [2-Octyl-4-isothiazolin-3-one],1.24 ± 0.64%,1.03 ± 0.27%,0.459 ± 0.03%,33.3 ± 1.9%,35.5 ± 1.5%,36.3 ± 1.2%,,29.4 ± 2.2%,21.6 ± 2.9%,40.8 ± 4.6%
"Nc1ccc(-c2ccc(N)c(Cl)c2)cc1Cl [3,3'-Dichlorobenzidine]",16.1 ± 5.5%,17.3 ± 2%,14.6 ± 2.8%,3.87 ± 0.23%,3.04 ± 0.4%,3.28 ± 0.46%,39.1 ± 7.4%,54.8 ± 17%,24.4 ± 3.6%,72 ± 6.2%
"Cc1cc(Cc2ccc(N)c(C)c2)ccc1N [4,4'-Methylene-bis(2-methyl aniline)]",4.29 ± 0.41%,4.74 ± 0.39%,2.61 ± 0.21%,0.0153 ± 0.026%,0.00421 ± 0.0073%,0.0106 ± 0.018%,1.31 ± 0.94%,30.3 ± 9.8%,24.5 ± 4%,65 ± 9.2%
"ClC(Cl)=C(c1ccc(Cl)cc1)c1ccc(Cl)cc1 [4,4-DDE]",0.964 ± 1%,0.268 ± 0.47%,,83.8 ± 12%,87.9 ± 3.9%,93 ± 13%,,,13 ± 3%,
"C[C@]12CCC(=O)C=C1CC[C@@H]1[C@@H]2CC[C@]2(C)C(=O)CC[C@@H]12 [4-Androstene-3,17-dione]",1.37 ± 2.1%,4.32 ± 1.8%,1.36 ± 1.8%,39.8 ± 3%,43.4 ± 1.7%,42.6 ± 3.7%,,,49.8 ± 8.7%,
Nc1ccc(Cl)cc1 [4-Chloroaniline],11.4 ± 2.3%,14.6 ± 1.5%,9.71 ± 1.7%,6.69 ± 4.3%,5.92 ± 5.1%,5.47 ± 3.5%,,16.4 ± 6.2%,,
O=C(O)CCC(=O)c1ccc(F)cc1 [4-Fluorobenzoylpropionic acid],60.4 ± 6.4%,60.3 ± 4.6%,56.6 ± 5.1%,,0.0416 ± 0.072%,0.0611 ± 0.11%,47.1 ± 4.1%,42.5 ± 2%,59.7 ± 7.3%,64 ± 7.2%
O=[N+]([O-])c1cc[n+]([O-])c2ccccc12 [4-Nitroquinoline-1-oxide],15.1 ± 2.7%,18.4 ± 2.5%,13.5 ± 1.6%,14.2 ± 0.49%,14.7 ± 1.4%,17 ± 0.8%,,,42.3 ± 8.4%,
c1cc2c3c(c1)ccc1cccc(c13)C2 [4H-Cyclopenta(def)phenanthrene],1.81 ± 1.4%,2 ± 0.34%,1.85 ± 0.12%,94.4 ± 32%,93.2 ± 14%,108 ± 43%,,,19.6 ± 3.7%,
CN(Cc1nc2c(N)nc(N)nc2nc1O)c1ccc(C(=O)N[C@@H](CCC(=O)O)C(=O)O)cc1 [7-Hydroxymethotrexate],38.5 ± 7.5%,45.7 ± 5.5%,40.3 ± 0.48%,,,0.0138 ± 0.079%,,,37.4 ± 4.5%,
C[C@]12CC(=O)[C@H]3[C@@H](CCC4=CC(=O)CC[C@@]43C)[C@@H]1CC[C@@H]2O [11-Ketotestosterone],34.3 ± 3.9%,30.6 ± 2.7%,21.9 ± 3.6%,4.7 ± 9.7%,,,,,50.5 ± 4.8%,
COC[P+](c1ccccc1)(c1ccccc1)c1ccccc1 [(Methoxymethyl)triphenylphosphonium],50.8 ± 5.7%,50.4 ± 4.2%,48.9 ± 5.7%,,0.00031 ± 0.0019%,0.00283 ± 0.0035%,40.1 ± 4.1%,36.1 ± 3.5%,48.7 ± 4.5%,71.1 ± 3.3%

# Second part, the compound after the results:
chemical recovery by SPE of plasma ([1]; equilibration time (d): 1),chemical recovery by SPE of plasma ([1]; equilibration time (d): 3),chemical recovery by SPE of plasma ([1]; equilibration time (d): 6),chemical recovery into PDMS ([2]; equilibration time (d): 1),chemical recovery into PDMS ([2]; equilibration time (d): 3),chemical recovery into PDMS ([2]; equilibration time (d): 6),"chemical recovery [3, 4]","chemical recovery [3, 5]","chemical recovery [3, 6]","chemical recovery [3, 7]",Compound
36.2 ± 6%,37.7 ± 2.4%,30.3 ± 2.5%,9.18 ± 0.11%,11.1 ± 0.48%,8.95 ± 1.5%,63.5 ± 7%,49.6 ± 2.7%,58.8 ± 4.3%,71.6 ± 5.8%,O=c1[nH]c2ccccc2s1 [2-Hydroxybenzothiazole]
57.7 ± 11%,55.6 ± 6.7%,51.7 ± 11%,0.215 ± 0.2%,0.668 ± 0.2%,0.788 ± 0.13%,48.1 ± 3.7%,44.7 ± 3.9%,51.6 ± 4.5%,68.2 ± 1.6%,NC(=O)N1c2ccccc2C=Cc2cc(O)ccc21 [2-Hydroxycarbamazepine]
0.0827 ± 0.14%,0.253 ± 0.11%,0.0669 ± 0.12%,8.73 ± 6%,,5.9 ± 0.22%,,0.149 ± 0.18%,0.912 ± 0.53%,,Cc1nc2ccccc2s1 [2-Methylbenzothiazole]
40.1 ± 4.3%,40.9 ± 3%,36.5 ± 1.1%,0.856 ± 1.5%,4.96 ± 0.6%,5.93 ± 0.81%,56.4 ± 2.7%,43.9 ± 3.2%,49.3 ± 6.2%,71.8 ± 3.8%,"NC(=O)Nc1ccc(Cl)c(Cl)c1 [3,4-Dichlorophenylurea]"
,5.92 ± 1.7%,10 ± 3.9%,0.339 ± 0.59%,0.844 ± 0.17%,0.572 ± 0.1%,3.92 ± 0.79%,3.28 ± 2.1%,,98.6 ± 21%,NC(=O)c1ccc(N)cc1 [4-Aminobenzamide]
55.2 ± 9.2%,55.2 ± 5%,52.3 ± 6.8%,0.3 ± 0.043%,0.905 ± 0.21%,1.34 ± 0.43%,44.7 ± 2.5%,41.8 ± 2.6%,52.8 ± 6.1%,59.3 ± 5%,Clc1ccc2[nH]nnc2c1 [5-Chlorobenzotriazole]
45.5 ± 4.2%,42.2 ± 5.6%,36 ± 2.7%,3.14 ± 0.15%,6.47 ± 1.2%,8.16 ± 2%,54.6 ± 2.9%,46.3 ± 3%,51.7 ± 8.2%,58.1 ± 3.9%,Cc1ccc2[nH]nnc2c1 [5-Methyl-1H-benzotriazole]
6.09 ± 0.59%,4.96 ± 0.66%,2.87 ± 0.15%,26.7 ± 4.1%,28.7 ± 3%,30.7 ± 1.9%,42.9 ± 6.9%,45.6 ± 5.5%,50 ± 6%,77.9 ± 3.2%,CCNc1ccc2c(C)cc(=O)oc2c1 [7-(Ethylamino)-4-methylcoumarin]
39.4 ± 4.9%,34.9 ± 3.5%,28.3 ± 3.2%,12.65 ± 0.075%,17.9 ± 2.4%,18.9 ± 2.1%,42.6 ± 3.4%,,53.5 ± 9.9%,70.4 ± 2%,Cc1cc(=O)oc2cc(N)ccc12 [7-Amino-4-methylcoumarin]
59.8 ± 8.4%,60.8 ± 6%,55.6 ± 7.7%,0.612 ± 0.1%,1.31 ± 0.36%,1.45 ± 0.21%,47.3 ± 4.9%,49.1 ± 5.4%,51.2 ± 4.5%,71.1 ± 3%,"NC(=O)N1c2ccccc2CC(O)c2ccccc21 (centres undefined) [10,11-Dihydro-10-hydroxycarbamazepine]"
